Test results from US11702404B2, “GLP-1R modulating compounds” (priority 2019, dated 2023).

Tests used:
[1] = Microsomal stability, human liver microsomes (predicted hepatic clearance); conditions: predicted from in vitro microsomal stability data
GLP-1R = GLP-1R (Homo sapiens, UniProt P43220); test: GLP-1R activation: cAMP increase in CHO cells stably expressing GLP-1R; type: cell-based; conditions: cAMP increase, CHO cells stably expressing GLP-1R, 10 point dose response, 30 minutes incubation; read-out: EC50
GLP-1R, sequence (P43220 24-463): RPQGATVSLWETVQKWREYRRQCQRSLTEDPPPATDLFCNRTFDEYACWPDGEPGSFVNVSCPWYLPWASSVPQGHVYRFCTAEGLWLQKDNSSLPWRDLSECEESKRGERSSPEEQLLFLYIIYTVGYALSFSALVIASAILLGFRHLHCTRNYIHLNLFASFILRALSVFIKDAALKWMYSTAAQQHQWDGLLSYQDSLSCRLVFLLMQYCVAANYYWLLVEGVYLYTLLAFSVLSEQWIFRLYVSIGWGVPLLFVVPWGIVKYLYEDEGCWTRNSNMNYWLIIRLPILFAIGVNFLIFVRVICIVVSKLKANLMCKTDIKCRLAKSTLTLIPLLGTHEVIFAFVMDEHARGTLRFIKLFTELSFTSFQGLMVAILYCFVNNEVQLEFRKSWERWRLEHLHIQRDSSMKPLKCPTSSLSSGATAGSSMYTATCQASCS

| SMILES | Predicted Hepatic Clearance (Pred. Cl.) [1] [mL/min/kg] | EC50 (GLP-1R) [nM] |
| --- | --- | --- |
| N#CCC1(Cn2c(Cc3ccc(-c4ccc(F)c(OCc5ccc(C#N)cc5F)n4)cc3F)nc3c(F)cc(C(=O)O)cc32)CC1 [Example 165, 2-(4-(6-((4-cyano-2-fluorobenzyl)oxy)-5-fluoropyridin-2-yl)-2-fluorobenzyl)-1-((1-(cyanomethyl)cyclopropyl)methyl)-4-fluoro-1H-benzo[d]imidazole-6-carboxylic acid] | 4 | 0.01 |
| N#Cc1ccc(COc2nc(-c3cc(F)c(Cc4nc5ccc(C(=O)O)cc5n4C[C@@H]4CCO4)c(F)c3F)ncc2F)c(F)c1 [Example 166, (S)-2-(4-(4-((4-cyano-2-fluorobenzyl)oxy)-5-fluoropyrimidin-2-yl)-2,3,6-trifluorobenzyl)-1-(oxetan-2-ylmethyl)-1H-benzo[d]imidazole-6-carboxylic acid] | 4.83 | 0.06 |
| N#Cc1ccc(COc2nc(-c3cc(F)c(Cc4nc5c(F)cc(C(=O)O)cc5n4CC4(CF)CC4)cc3F)ncc2F)c(F)c1 [Example 167, 2-(4-(4-((4-cyano-2-fluorobenzyl)oxy)-5-fluoropyrimidin-2-yl)-2,5-difluorobenzyl)-4-fluoro-1-((1-(fluoromethyl)cyclopropyl)methyl)-1H-benzo[d]imidazole-6-carboxylic acid] | 6 | 0.11 |
| COCCn1c(Cc2ccc(-c3cccc(NCc4ccc(C#N)cc4F)n3)cc2F)nc2ccc(C(=O)O)cc21 [Example 170, 2-(4-(6-((4-cyano-2-fluorobenzyl)amino)pyridin-2-yl)-2-fluorobenzyl)-1-(2-methoxyethyl)-1H-benzo[d]imidazole-carboxylic acid] | 6.33 | 509 |
| COCCn1c(Cc2ccc(-c3cccc(OCc4ccc(C#N)cc4F)n3)cc2C(F)(F)F)nc2ccc(C(=O)O)cc21 [Example 172, 2-(4-(6-((4-cyano-2-fluorobenzyl)oxy)pyridin-2-yl)-2-(trifluoromethyl)benzyl)-1-(2-methoxyethyl)-1H-benzo[d]imidazole-carboxylic acid] | 9.5 | 38 |
| COCCn1c(Cc2ccc(-c3cccc(OCc4ccc(C#N)cc4F)n3)cc2C2=CCN(C(=O)OC(C)(C)C)CC2)nc2ccc(C(=O)O)cc21 [Example 173, 2-(2-(1-(tert-butoxycarbonyl)-1,2,3,6-tetrahydropyridin-4-yl)-4-(6-((4-cyano-2-fluorobenzyl)oxy)pyridin-2-yl)benzyl)-1-(2-methoxyethyl)-1H-benzo[d]imidazole-6-carboxylic acid] | 5 | 774 |
| COCCn1c(Cc2c(F)cc(-c3cccnc3OCc3ccc(Cl)cc3F)cc2F)nc2ccc(C(=O)O)cc21 [Example 174, 2-(4-(2-((4-chloro-2-fluorobenzyl)oxy)pyridin-3-yl)-2,6-difluorobenzyl)-1-(2-methoxyethyl)-1H-benzo[d]imidazole-carboxylic acid] | 5.67 | 32.9 |
| COCCn1c(Cc2ccc(-c3cccc(OCc4ccc(C#N)cc4F)n3)cc2-c2ccncc2)nc2ccc(C(=O)O)cc21 [Example 175, 2-(4-(6-((4-cyano-2-fluorobenzyl)oxy)pyridin-2-yl)-2-(pyridin-4-yl)benzyl)-1-(2-methoxyethyl)-1H-benzo[d]imidazole-6-carboxylic acid] | 15.7 | 9270 |
| COCCn1c(Cc2ccc(-c3cccc(OCc4ccc(C#N)cc4F)n3)cc2-c2ccsc2)nc2ccc(C(=O)O)cc21 [Example 176, 2-(4-(6-((4-cyano-2-fluorobenzyl)oxy)pyridin-2-yl)-2-(thiophen-3-yl)benzyl)-1-(2-methoxyethyl)-1H-benzo[d]imidazole-6-carboxylic acid] | <1.83 | 273 |
| COCCn1c(Cc2ccc(-c3cccc(OCc4ccc(C#N)cc4F)n3)cc2C2CC2)nc2ccc(C(=O)O)cc21 [Example 178, 2-(4-(6-((4-cyano-2-fluorobenzyl)oxy)pyridin-2-yl)-2-cyclopropylbenzyl)-1-(2-methoxyethyl)-1H-benzo[d]imidazole-6-carboxylic acid] | 9.83 | 32.5 |
| COCCn1c(Cc2ccc(-c3ccccc3OCc3ccc(C#N)cc3F)cc2F)nc2ccc(C(=O)O)cc21 [Example 182, 2-((2′-((4-cyano-2-fluorobenzyl)oxy)-3-fluoro-[1,1′-biphenyl]-4-yl)methyl)-1-(2-methoxyethyl)-1H-benzo[d]imidazole-carboxylic acid] | 7.67 | 449 |
| COCCn1c(Cc2c(F)cc(-c3cccnc3OCc3ccccc3)cc2F)nc2ccc(C(=O)O)cc21 [Example 186, 2-(4-(2-(benzyloxy)pyridin-3-yl)-2,6-difluorobenzyl)-1-(2-methoxyethyl)-1H-benzo[d]imidazole-carboxylic acid] | 11.5 | 812 |
| COCCn1c(Cc2ccc(-c3cccc(OCc4ccc(C#N)cc4F)n3)cc2-c2cccc([N+](=O)[O-])c2)nc2ccc(C(=O)O)cc21 [Example 187, 2-((5-(6-((4-cyano-2-fluorobenzyl)oxy)pyridin-2-yl)-3′-nitro-[1,1′-biphenyl]-2-yl)methyl)-1-(2-methoxyethyl)-1H-benzo[d]imidazole-6-carboxylic acid] | 14.8 | 723 |
| COCCn1c(Cc2c(F)cc(-c3cncnc3OCc3ccc(C#N)cc3F)cc2F)nc2ccc(C(=O)O)cc21 [Example 189, 2-(4-(4-((4-cyano-2-fluorobenzyl)oxy)pyrimidin-5-yl)-2,6-difluorobenzyl)-1-(2-methoxyethyl)-1H-benzo[d]imidazole-carboxylic acid] | 8.5 | 3050 |
| COCCn1c(Cc2c(F)cc(-c3cccnc3OCc3ccccc3F)cc2F)nc2ccc(C(=O)O)cc21 [Example 192, 2-(2,6-difluoro-4-(2-((2-fluorobenzyl)oxy)pyridin-3-yl)benzyl)-1-(2-methoxyethyl)-1H-benzo[d]imidazole-carboxylic acid] | 13 | 437 |

Results, then the molecule that gave them:

| Predicted Hepatic Clearance (Pred. Cl.) [1] [mL/min/kg] | EC50 (GLP-1R) [nM] | SMILES |
| --- | --- | --- |
| <1.83 | 1.06 | N#CCC1(Cn2c(Cc3ccc(-c4ccnc(OCc5ccc(C#N)cc5F)n4)cc3F)nc3c(F)cc(C(=O)O)cc32)CC1 [Example 168, 2-(4-(2-((4-cyano-2-fluorobenzyl)oxy)pyrimidin-4-yl)-2-fluorobenzyl)-1-((1-(cyanomethyl)cyclopropyl)methyl)-4-fluoro-1H-benzo[d]imidazole-6-carboxylic acid] |
| 5.33 | 4.31 | COCCn1c(Cc2ccc(-c3ncc(F)c(OCc4ccc(C#N)cc4F)n3)c(F)c2F)nc2ccc(C(=O)O)cc21 [Example 169, 2-(4-(4-((4-cyano-2-fluorobenzyl)oxy)-5-fluoropyrimidin-2-yl)-2,3-difluorobenzyl)-1-(2-methoxyethyl)-1H-benzo[d]imidazole-6-carboxylic acid] |
| 7 | 335 | COCCn1c(Cc2c(F)cc(-c3nccnc3OCc3ccc(C#N)cc3F)cc2F)nc2ccc(C(=O)O)cc21 [Example 177, 2-(4-(3-((4-cyano-2-fluorobenzyl)oxy)pyrazin-2-yl)-2,6-difluorobenzyl)-1-(2-methoxyethyl)-1H-benzo[d]imidazole-carboxylic acid] |
| 3.5 | 45.6 | COCCn1c(Cc2c(F)cc(-c3cccnc3OCc3ccc(C#N)cc3F)cc2F)nc2ccc(C(=O)O)cc21 [Example 179, 2-(4-(2-((4-cyano-2-fluorobenzyl)oxy)pyridin-3-yl)-2,6-difluorobenzyl)-1-(2-methoxyethyl)-1H-benzo[d]imidazole-carboxylic acid] |
| 6.33 | 257 | COCCn1c(Cc2ccc(-c3cccnc3OCc3ccc(C#N)cc3F)cc2F)nc2ccc(C(=O)O)cc21 [Example 180, 2-(4-(2-((4-cyano-2-fluorobenzyl)oxy)pyridin-3-yl)-2-fluorobenzyl)-1-(2-methoxyethyl)-1H-benzo[d]imidazole-carboxylic acid] |
| 2.83 | 15.5 | COCCn1c(Cc2ccc(-c3cccc(OCc4ccc(C#N)cc4F)n3)cc2O)nc2ccc(C(=O)O)cc21 [Example 181, 2-(4-(6-((4-cyano-2-fluorobenzyl)oxy)pyridin-2-yl)-2-hydroxybenzyl)-1-(2-methoxyethyl)-1H-benzo[d]imidazole-6-carboxylic acid] |
| <1.83 | 369 | COCCn1c(Cc2ccc(-c3cccc(OCc4ccc(C#N)cc4F)n3)cc2-c2ccccc2)nc2ccc(C(=O)O)cc21 [Example 184, 2-((5-(6-((4-cyano-2-fluorobenzyl)oxy)pyridin-2-yl)-[1,1′-biphenyl]-2-yl)methyl)-1-(2-methoxyethyl)-1H-benzo[d]imidazole-6-carboxylic acid] |
| 17.5 | 36.9 | COCCn1c(Cc2ccc(-c3cccc(OCc4ccc(C#N)cc4F)n3)cc2-c2cccc(OC)c2)nc2ccc(C(=O)O)cc21 [Example 188, 2-((5-(6-((4-cyano-2-fluorobenzyl)oxy)pyridin-2-yl)-3′-methoxy-[1,1′-biphenyl]-2-yl)methyl)-1-(2-methoxyethyl)-1H-benzo[d]imidazole-6-carboxylic acid] |
| 6.83 | 252 | COCCn1c(Cc2ccc(-c3cccc(OCc4ccc(C#N)cc4F)n3)cc2-c2cnn(C(F)F)c2)nc2ccc(C(=O)O)cc21 [Example 190, 2-(4-(6-((4-cyano-2-fluorobenzyl)oxy)pyridin-2-yl)-2-(1-(difluoromethyl)-1H-pyrazol-4-yl)benzyl)-1-(2-methoxyethyl)-1H-benzo[d]imidazole-6-carboxylic acid] |
